Reference: patent publication US11447493B2 (Kinnate Biopharma Inc., priority 2018, dated 2022)
One block for each molecule: values may come before it.

Legend:
CDK12 wt/CycK = CDK12 wt/CycK (Homo sapiens (Human), UniProt Q9NYV4); assay: Radiometric protein kinase assay (33PanQinase), Assay Condition A (thiol containing); assay type: biochemical; conditions: thiol containing (1.2 mM DTT), ATP 0.3 μM
Summary of the method: (§1)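 Recombinant human kinases assayed radiometrically (33PanQinase) with 33P-ATP incorporation into substrate, 60 min at 30° C, thiol-containing buffer, 1% DMSO final. Ten concentrations from 1×10^−04M to 3×10^−09M tested in singlicate. Residual activity normalized to no-enzyme and no-inhibitor controls; IC50 by least-squares fit.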

CDK12 = CDK12 (Homo sapiens (Human), UniProt Q9NYV4); assay: Radiometric protein kinase assay (33PanQinase), Assay Condition B (thiol-free); assay type: biochemical; conditions: thiol-free (1 mM TCEP)
Procedure: The IC50 profile of compounds was determined using one protein kinase in a customized, thiol free assay. […] Prior to testing, the 1×10^−03 M stock solutions in column 2 of the master plates were subjected to a serial, semi-logarithmic dilution using 100% DMSO as a solvent. […] Column 1 and 7 were filled with 100% DMSO as controls. Subsequently, 2×10 microliter from each well of the serial diluted copy plates were aliquoted with a 96 channel pipettor into two identical sets of “compound dilution plates”. All plates were barcoded for automated identification and tracking purposes. […] All compounds were stored as powder until being solubilized in DMSO. Solubilized compounds were stored as 1×10^−02M/100% DMSO stock solutions. Prior to the assay process, 90 microliters of H2O were added to each well of a set of compound dilution plates. To minimize potential precipitation, the H2O was added to each plate only a few minutes before the transfer of the compound solutions into the assay plates. Each plate was shaken thoroughly, resulting in compound dilution plates with a final of 10% DMSO. For each assay, 5 microliters of solution from each well of the compound dilution plates/10% DMSO were transferred into the assay plate. The final volume of the assay was 50 μl. All compounds were tested at 10 final assay concentrations in the range from 1×10^−05M to 3×10^−10 M, in singlicate. The final DMSO concentration in the reaction cocktails was 1% in all cases. […] This was done so there would be no interference with the key cysteines in the proteins of interest.
For data analysis, the median value of the counts in column 1 (n=8) of each assay plate was defined as “low control”. This value reflects unspecific binding of radioactivity to the plate in the absence of a protein kinase but in the presence of the substrate. The median value of the counts in column 7 of each assay plate (n=8) was taken as the “high control”, i.e. full activity in the absence of any inhibitor. The difference between high and low control was taken as 100% activity. As part of the data evaluation the low control value from a particular plate was subtracted from the high control value as well as from all 80 “compound values” of the corresponding plate. The residual activity (in %) for each well of a particular plate was calculated by using the following formula: Res. Activity (%)=100×[(cpm of compound−low control)/(high control−low control)]
The fitting method used was a least-squares fit.

CDK2/CycA2 = CDK2/CycA2 (Homo sapiens (Human), UniProt P24941); assay: Radiometric protein kinase assay (33PanQinase), Assay Condition A (thiol containing); assay type: biochemical; conditions: thiol containing (1.2 mM DTT), ATP 0.3 μM
Summary of the method: as §1

CDK7/CycH/MAT1 = CDK7/CycH/MAT1 (Homo sapiens (Human), UniProt P50613); assay: as above; assay type: biochemical; conditions: thiol containing (1.2 mM DTT), ATP 3.0 μM
Summary of the method: as §1

CDK2 = CDK2 (Homo sapiens (Human), UniProt P24941); assay: Radiometric protein kinase assay (33PanQinase), Assay Condition B (thiol-free); assay type: biochemical; conditions: thiol-free (1 mM TCEP)
Procedure: The IC50 profile of compounds was determined using one protein kinase in a customized, thiol free assay. […] Prior to testing, the 1×10^−03 M stock solutions in column 2 of the master plates were subjected to a serial, semi-logarithmic dilution using 100% DMSO as a solvent. […] Column 1 and 7 were filled with 100% DMSO as controls. Subsequently, 2×10 microliter from each well of the serial diluted copy plates were aliquoted with a 96 channel pipettor into two identical sets of “compound dilution plates”. All plates were barcoded for automated identification and tracking purposes. […] All compounds were stored as powder until being solubilized in DMSO. Solubilized compounds were stored as 1×10^−02M/100% DMSO stock solutions. Prior to the assay process, 90 microliters of H2O were added to each well of a set of compound dilution plates. To minimize potential precipitation, the H2O was added to each plate only a few minutes before the transfer of the compound solutions into the assay plates. Each plate was shaken thoroughly, resulting in compound dilution plates with a final of 10% DMSO. For each assay, 5 microliters of solution from each well of the compound dilution plates/10% DMSO were transferred into the assay plate. The final volume of the assay was 50 μl. All compounds were tested at 10 final assay concentrations in the range from 1×10^−05M to 3×10^−10 M, in singlicate. The final DMSO concentration in the reaction cocktails was 1% in all cases. […]
For data analysis, the median value of the counts in column 1 (n=8) of each assay plate was defined as “low control”. This value reflects unspecific binding of radioactivity to the plate in the absence of a protein kinase but in the presence of the substrate. […] The residual activity (in %) for each well of a particular plate was calculated by using the following formula: Res. Activity (%)=100×[(cpm of compound−low control)/(high control−low control)]
The residual activities for each concentration and the compound IC50 values were calculated using Quattro Workflow V3.1.1 (Quattro Research GmbH, Munich, Germany; www.quattro-research.com). […]

[1] = system: panel of 1,151 cancer cell lines; conditions: in 52% of a panel of 1,151 cancer cell lines (Kwiatkowski, 2014); cited from earlier work

Sequence of CDK7/CycH/MAT1 (P50613 whole entry): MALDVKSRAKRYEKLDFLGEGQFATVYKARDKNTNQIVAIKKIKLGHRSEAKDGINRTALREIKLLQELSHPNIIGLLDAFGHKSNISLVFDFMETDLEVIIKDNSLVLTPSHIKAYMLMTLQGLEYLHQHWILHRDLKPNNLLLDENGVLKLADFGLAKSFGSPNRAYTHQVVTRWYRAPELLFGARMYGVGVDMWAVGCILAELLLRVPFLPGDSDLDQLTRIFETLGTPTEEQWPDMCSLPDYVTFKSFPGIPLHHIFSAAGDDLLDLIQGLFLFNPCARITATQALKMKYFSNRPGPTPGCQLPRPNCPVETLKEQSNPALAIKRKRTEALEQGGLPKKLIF
Sequence of CDK7/CycH/MAT1 (P51946 whole entry partner): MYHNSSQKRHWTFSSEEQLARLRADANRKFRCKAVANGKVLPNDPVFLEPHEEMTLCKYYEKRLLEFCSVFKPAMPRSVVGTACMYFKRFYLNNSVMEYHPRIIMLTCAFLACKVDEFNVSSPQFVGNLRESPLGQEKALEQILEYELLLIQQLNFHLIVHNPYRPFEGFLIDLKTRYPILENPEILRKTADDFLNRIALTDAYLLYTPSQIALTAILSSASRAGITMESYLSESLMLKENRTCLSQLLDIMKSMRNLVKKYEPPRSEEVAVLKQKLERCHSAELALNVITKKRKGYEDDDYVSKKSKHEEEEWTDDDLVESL
Sequence of CDK7/CycH/MAT1 (P51948 whole entry partner): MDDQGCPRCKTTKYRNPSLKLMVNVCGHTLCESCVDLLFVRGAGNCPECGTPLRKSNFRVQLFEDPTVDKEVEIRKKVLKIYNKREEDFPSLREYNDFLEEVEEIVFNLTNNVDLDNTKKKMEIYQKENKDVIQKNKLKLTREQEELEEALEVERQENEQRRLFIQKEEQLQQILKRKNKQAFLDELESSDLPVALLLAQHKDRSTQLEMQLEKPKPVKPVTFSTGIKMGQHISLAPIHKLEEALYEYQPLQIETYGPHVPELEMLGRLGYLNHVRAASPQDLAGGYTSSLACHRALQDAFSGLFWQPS
Sequence of CDK12 (Q9NYV4 whole entry): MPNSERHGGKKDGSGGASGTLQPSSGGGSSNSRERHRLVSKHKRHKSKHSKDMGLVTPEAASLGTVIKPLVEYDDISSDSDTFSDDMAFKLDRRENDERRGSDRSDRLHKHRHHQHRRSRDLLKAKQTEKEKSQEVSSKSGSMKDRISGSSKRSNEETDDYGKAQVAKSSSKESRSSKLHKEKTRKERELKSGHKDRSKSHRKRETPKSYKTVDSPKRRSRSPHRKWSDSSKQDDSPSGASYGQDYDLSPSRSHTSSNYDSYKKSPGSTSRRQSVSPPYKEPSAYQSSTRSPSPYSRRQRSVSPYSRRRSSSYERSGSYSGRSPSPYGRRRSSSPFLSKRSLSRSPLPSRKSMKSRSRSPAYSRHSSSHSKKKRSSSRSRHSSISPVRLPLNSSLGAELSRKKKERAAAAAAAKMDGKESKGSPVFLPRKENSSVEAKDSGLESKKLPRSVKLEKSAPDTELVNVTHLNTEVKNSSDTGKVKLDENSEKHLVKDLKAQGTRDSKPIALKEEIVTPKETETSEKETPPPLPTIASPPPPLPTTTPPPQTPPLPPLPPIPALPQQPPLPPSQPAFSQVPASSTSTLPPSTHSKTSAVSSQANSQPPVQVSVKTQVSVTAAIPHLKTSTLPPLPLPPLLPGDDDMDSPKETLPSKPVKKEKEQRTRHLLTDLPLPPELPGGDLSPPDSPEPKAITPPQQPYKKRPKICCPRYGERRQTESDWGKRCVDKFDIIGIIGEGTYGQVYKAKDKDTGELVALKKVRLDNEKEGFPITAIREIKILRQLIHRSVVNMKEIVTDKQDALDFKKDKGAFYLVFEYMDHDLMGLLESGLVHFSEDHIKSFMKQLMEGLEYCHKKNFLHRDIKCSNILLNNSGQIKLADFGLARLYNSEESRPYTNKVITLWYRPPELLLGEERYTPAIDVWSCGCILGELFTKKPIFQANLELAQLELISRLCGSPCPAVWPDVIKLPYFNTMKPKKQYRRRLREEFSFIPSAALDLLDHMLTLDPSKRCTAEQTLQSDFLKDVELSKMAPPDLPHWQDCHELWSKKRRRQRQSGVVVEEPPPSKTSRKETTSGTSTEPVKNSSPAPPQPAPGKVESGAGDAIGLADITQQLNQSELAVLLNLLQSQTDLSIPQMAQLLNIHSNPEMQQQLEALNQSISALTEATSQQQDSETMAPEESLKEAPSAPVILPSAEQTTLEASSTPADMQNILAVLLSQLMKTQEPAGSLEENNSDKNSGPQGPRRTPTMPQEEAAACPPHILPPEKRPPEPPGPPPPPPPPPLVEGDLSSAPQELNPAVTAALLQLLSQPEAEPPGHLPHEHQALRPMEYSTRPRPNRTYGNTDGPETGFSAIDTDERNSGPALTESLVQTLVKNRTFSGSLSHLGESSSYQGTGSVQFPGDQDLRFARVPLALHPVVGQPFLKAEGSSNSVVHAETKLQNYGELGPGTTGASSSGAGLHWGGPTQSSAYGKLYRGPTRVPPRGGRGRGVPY
Sequence of CDK12 (O75909 whole entry partner): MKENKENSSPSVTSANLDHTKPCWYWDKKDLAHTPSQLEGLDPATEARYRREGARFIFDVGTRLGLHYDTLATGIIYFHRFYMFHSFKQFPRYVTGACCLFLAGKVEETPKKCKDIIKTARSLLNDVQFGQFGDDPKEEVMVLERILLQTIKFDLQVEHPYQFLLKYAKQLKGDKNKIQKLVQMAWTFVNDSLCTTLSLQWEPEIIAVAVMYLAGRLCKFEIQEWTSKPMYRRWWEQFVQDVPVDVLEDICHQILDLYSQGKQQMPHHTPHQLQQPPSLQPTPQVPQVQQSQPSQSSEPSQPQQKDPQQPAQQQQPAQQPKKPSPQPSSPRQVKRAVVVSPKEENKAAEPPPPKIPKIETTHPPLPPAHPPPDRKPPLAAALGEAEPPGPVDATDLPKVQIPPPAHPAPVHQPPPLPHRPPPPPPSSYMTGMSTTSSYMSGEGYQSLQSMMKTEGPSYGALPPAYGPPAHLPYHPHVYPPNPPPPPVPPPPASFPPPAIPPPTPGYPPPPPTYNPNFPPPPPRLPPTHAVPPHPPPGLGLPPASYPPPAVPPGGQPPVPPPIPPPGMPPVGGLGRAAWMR
Sequence of CDK12 wt/CycK (Q9NYV4 whole entry): as the sequence (Q9NYV4 whole entry) above
Sequence of CDK12 wt/CycK (O75909 whole entry partner): as the sequence (O75909 whole entry partner) above

SMILES: C=CC(=O)Nc1ccc(C(=O)N2CC[C@@H](Nc3ncc4ccccc4n3)C2)cc1 [Example 26, (R)-N-(4-(3-(quinazolin-2-ylamino)pyrrolidine-1-carbonyl)phenyl)acrylamide]
IC50 (CDK12 wt/CycK): ≤ 100 nM | IC50 (CDK12): < 100 nM

SMILES: C=CC(=O)Nc1ccc(C(=O)N2CC[C@@H](Nc3ncc4cc(F)ccc4n3)C2)cc1 [Example 28, (R)-N-(4-(3-((6-fluoroquinazolin-2-yl)amino)pyrrolidine-1-carbonyl)phenyl)acrylamide]
IC50 (CDK12 wt/CycK): ≤ 100 nM | IC50 (CDK12): < 100 nM

SMILES: C=CC(=O)Nc1ccc(C(=O)N2CC[C@@H](Nc3ncc4ccc(S(C)(=O)=O)cc4n3)C2)cc1 [Example 33, (R)-N-(4-(3-((7-(methylsulfonyl)quinazolin-2-yl)amino)pyrrolidine-1-carbonyl)phenyl)acrylamide]
IC50 (CDK12 wt/CycK): ≤ 100 nM | IC50 (CDK12): < 100 nM

SMILES: C=CC(=O)Nc1ccc(C(=O)N2CC[C@@H](Nc3ncc4ccc(OC)cc4n3)C2)cc1 [Example 34, (R)-N-(4-(3-((7-methoxyquinazolin-2-yl)amino)pyrrolidine-1-carbonyl)phenyl)acrylamide]
IC50 (CDK12 wt/CycK): ≤ 100 nM | IC50 (CDK12): < 100 nM

SMILES: C=CC(=O)Nc1ccc(C(=O)N2CC[C@@H](Nc3ncc4ccc(C#N)cc4n3)C2)cc1 [Example 37, (R)—N-(4-(3-((7-cyanoquinazolin-2-yl)amino)pyrrolidine-1-carbonyl)phenyl)acrylamide]
IC50 (CDK12 wt/CycK): ≤ 100 nM | IC50 (CDK12): < 100 nM

SMILES: C=CC(=O)Nc1ccc(C(=O)N2CC[C@@H](Nc3ncc4ccccc4n3)C2)cc1C [Example 72, (R)—N-(2-methyl-4-(3-(quinazolin-2-ylamino)pyrrolidine-1-carbonyl)phenyl)acrylamide]
IC50 (CDK12 wt/CycK): ≤ 100 nM | IC50 (CDK2/CycA2): 1000 to 10000 nM | IC50 (CDK7/CycH/MAT1): 1000 to 10000 nM | IC50 (CDK12): < 100 nM | IC50 (CDK2): 1000 to 10000 nM

SMILES: C=CC(=O)Nc1ccc(C(=O)N2CC[C@@H](Nc3ncc4cc(F)ccc4n3)C2)cc1C [Example 92, (R)—N-(4-(3-((6-fluoroquinazolin-2-yl)amino)pyrrolidine-1-carbonyl)-2-methylphenyl)acrylamide]
IC50 (CDK12 wt/CycK): ≤ 100 nM | IC50 (CDK2/CycA2): 1000 to 10000 nM | IC50 (CDK7/CycH/MAT1): 1000 to 10000 nM

SMILES: C=CC(=O)Nc1ccc(C(=O)N2CC[C@@H](Nc3ncc4ccc(S(C)(=O)=O)cc4n3)C2)cc1C [Example 93, (R)—N-(2-methyl-4-(3-((7-(methylsulfonyl)quinazolin-2-yl)amino)pyrrolidine-1-carbonyl)phenyl)acrylamide]
IC50 (CDK12 wt/CycK): ≤ 100 nM | IC50 (CDK2/CycA2): 100 to 1000 nM | IC50 (CDK7/CycH/MAT1): 1000 to 10000 nM

SMILES: C=C(CC)C(=O)Nc1ccc(C(=O)N2CC[C@@H](Nc3ncc4ccccc4n3)C2)cc1 [Example 94, (R)-2-methylene-N-(4-(3-(quinazolin-2-ylamino)pyrrolidine-1-carbonyl)phenyl)butanamide]
IC50 (CDK12 wt/CycK): 100 to 1000 nM | IC50 (CDK2/CycA2): 1000 to 10000 nM | IC50 (CDK7/CycH/MAT1): 1000 to 10000 nM

SMILES: CN(C)C/C=C/C(=O)Nc1ccc(C(=O)Nc2cccc(Nc3ncc(Cl)c(-c4c[nH]c5ccccc45)n3)c2)cc1 [THZ1]
IC50 [1]: < 200 nM

More lines, now with the values ahead:

IC50 (CDK12 wt/CycK): ≤ 100 nM | IC50 (CDK12): < 100 nM
SMILES: C=CC(=O)Nc1ccc(C(=O)N2CC[C@@H](Nc3ncc4ccc(=O)n(C(C)C)c4n3)C2)cc1 [Example 43, (R)—N-(4-(3-((8-isopropyl-7-oxo-7,8-dihydropyrido[2,3-d]pyrimidin-2-yl)amino)pyrrolidine-1-carbonyl)phenyl)acrylamide]

IC50 (CDK12 wt/CycK): 100 to 1000 nM | IC50 (CDK12): 100 to 1000 nM
SMILES: CCC(=O)Nc1ccc(C(=O)N2CC[C@@H](Nc3ncc4ccccc4n3)C2)cc1 [Example 44, (R)—N-(4-(3-(quinazolin-2-ylamino)pyrrolidine-1-carbonyl)phenyl)propionamide]

IC50 (CDK12 wt/CycK): ≤ 100 nM | IC50 (CDK12): < 100 nM
SMILES: C=CC(=O)Nc1ccc(C(=O)N2CC[C@@H](Nc3ncc4ccccc4n3)C2)cc1F [Example 62, (R)—N-(2-fluoro-4-(3-(quinazolin-2-ylamino)pyrrolidine-1-carbonyl)phenyl)acrylamide]

IC50 (CDK2/CycA2): 1000 to 10000 nM | IC50 (CDK2): 1000 to 10000 nM
SMILES: C=CC(=O)N(C)c1ccc(C(=O)N2CC[C@@H](Nc3ncc4ccccc4n3)C2)cc1 [Example 74, (R)—N-methyl-N-(4-(3-(quinazolin-2-ylamino)pyrrolidine-1-carbonyl)phenyl)acrylamide]

IC50 (CDK12 wt/CycK): ≤ 100 nM | IC50 (CDK2/CycA2): 1000 to 10000 nM | IC50 (CDK12): < 100 nM | IC50 (CDK2): 1000 to 10000 nM
SMILES: C=CC(=O)Nc1ccc(C(=O)N2CC[C@@H](Nc3ncc4ccccc4n3)C2)cc1Cl [Example 88, (R)—N-(2-chloro-4-(3-(quinazolin-2-ylamino)pyrrolidine-1-carbonyl)phenyl)acrylamide]

IC50 (CDK12 wt/CycK): 100 to 1000 nM | IC50 (CDK2/CycA2): 1000 to 10000 nM | IC50 (CDK7/CycH/MAT1): 1000 to 10000 nM
SMILES: C=CC(=O)Nc1ccc(C(=O)N2CC[C@@H](Nc3ncc4c(F)cccc4n3)C2)cc1 [Example 91, (R)—N-(4-(3-((5-fluoroquinazolin-2-yl)amino)pyrrolidine-1-carbonyl)phenyl)acrylamide]

IC50 (CDK12 wt/CycK): 100 to 1000 nM | IC50 (CDK2/CycA2): 1000 to 10000 nM | IC50 (CDK7/CycH/MAT1): 100 to 1000 nM
SMILES: C=CS(=O)(=O)Nc1ccc(C(=O)N2CC[C@@H](Nc3ncc4ccccc4n3)C2)cc1 [Example 95, (R)—N-(4-(3-(quinazolin-2-ylamino)pyrrolidine-1-carbonyl)phenyl)ethenesulfonamide]

IC50 (CDK12 wt/CycK): 1000 to 10000 nM | IC50 (CDK2/CycA2): 30000 to 100000 nM | IC50 (CDK7/CycH/MAT1): 10000 to 30000 nM
SMILES: C=CC(=O)Nc1ccc(C(=O)N2C[C@H](Nc3ncc4ccccc4n3)[C@@H](C)C2)cc1 [Example 96, N-(4-((3S,4R)-3-methyl-4-(quinazolin-2-ylamino)pyrrolidine-1-carbonyl)phenyl)acrylamide]
